Reference: US20150005390A1, “METHOD FOR TREATING INFLAMMATORY DISORDER” (National Defense Medical Center, priority 2013, published 2015)

How the values were obtained:
[1] = test system: TNF-α expression in RAW 264.7 macrophages; test: TNF-α ELISA in LPS-activated macrophages; format: cell-based, murine; settings: RAW 264.7 macrophages pretreated with creosol 30 minutes, then LPS 1 μg/ml 24 hours; FIG. 1C
Experimental: (§1) Cells were seeded in 6-well plates at a density of 5×10^5 cells/ml, and then incubated with or without LPS (1 μug/ml) in the absence or presence of tested samples for 24 hours. The effects of the tested samples on TNF-α, IL-6 and IL-1β production were measured by ELISA according to the manufacturer's protocol. Briefly, 50 μl of biotinylated antibody reagent and 50 μl of supernatant were added to an anti-mouse TNF-α, IL-6 and IL-1β precoated stripwell plate, and incubated at room temperature for 2 hours. After washing the plate three times with the washing buffer, 100 μl of diluted streptavidin-HRP (horseradish peroxidase) concentrate was added to each well and the plate was incubated at room temperature for 30 minutes. The washing process was repeated; then, 100 μl of a premixed tetramethylbenzidine substrate solution was added to each well and developed at room temperature, in the dark, for 30 minutes. Following the addition of 100 μl of stop solution to each well to stop the reaction, the absorbance of the plate was measured by a microplate reader at a 450 nm wavelength. As shown in FIG. 1B and FIG. 1C, RAW 264.7 macrophages (5×10^5/ml) were pretreated with creosol for 30 minutes, followed by stimulating with LPS (1 μg/ml) for 24 hours. IL-6 and TNF-α concentration in culture medium was assayed by ELISA.

[2] = test system: NLRP3 expression in J774A.1 cells; test: NLRP3 expression, Western blot in LPS-activated macrophages; format: cell-based, mouse; settings: J774A.1 cells incubated with creosol 30 minutes, then LPS 6 hours; FIG. 2E
Experimental: (§2) Whole cell lysates were separated by SDS-PAGE and electrotransferred to a PVDF (polyvinylidene fluoride) membrane. The membranes were incubated in a blocking solution—5% nonfat milk in phosphate buffered saline with 0.1% Tween 20—at room temperature for 1 hour. Each membrane was incubated with a specific primary antibody, at room temperature, for 2 hours. After washing the membrane three times in PBS with 0.1% Tween 20, it was incubated with an HRP-conjugated secondary antibody directed against the primary antibody. The membrane was developed by an enhanced chemiluminescence Western blot detection system.
(§3) J774A.1 cells (1×10^6/ml) were primed with LPS for 5.5 hours, followed by treatment with creosol for 30 minutes, and then stimulated with ATP (5 mM) for an additional 30 minutes. […] Data is expressed as the mean±SE from three separate experiments (wherein *p<0.05). In FIG. 2B, the expression of caspase-1 (p45) and cleaved caspase-1 (p10) were analyzed by Western blot. […] Data is expressed as the mean±SE from three separate experiments (wherein *p<0.05). The expressions of caspase-1 (p45) and cleaved caspase-1 (p10) were analyzed by Western blot, and the result of one of the three separate experiments is shown in FIG. 2D. […] The expressions of NLRP3 inflammasomes and IL-1β precursor were analyzed by Western blot. […]

[3] = test system: IL-1β secretion in J774A.1 cells; test: IL-1β secretion ELISA in ATP stimulated LPS-primed macrophages (NLRP3 inflammasome activation); format: cell-based, mouse
Experimental: Cells were seeded in 6-well plates at a density of 5×10^5 cells/ml, and then incubated with or without LPS (1 μug/ml) in the absence or presence of tested samples for 24 hours. The effects of the tested samples on TNF-α, IL-6 and IL-1β production were measured by ELISA according to the manufacturer's protocol. Briefly, 50 μl of biotinylated antibody reagent and 50 μl of supernatant were added to an anti-mouse TNF-α, IL-6 and IL-1β precoated stripwell plate, and incubated at room temperature for 2 hours. […] Following the addition of 100 μl of stop solution to each well to stop the reaction, the absorbance of the plate was measured by a microplate reader at a 450 nm wavelength.
as §3

[4] = test system: caspase-1 activation in J774A.1 cells; test: Caspase-1 activation, Western blot of p10 subunit in ATP stimulated LPS-primed macrophages; format: cell-based, mouse; settings: then ATP 30 minutes
Experimental: as §2, §3

[5] = test system: cultured rat hippocampal neurons; settings: cultured rat hippocampal neurons exposed to N-methyl-D-aspartate or H2O2; cited from earlier work
[6] = test system: ovariectomy-induced bone loss; settings: through inhibiting osteoclastogenesis; cited from earlier work
[7] = test system: NO production in RAW 264.7 macrophages; test: NO inhibitory assay (Griess reaction) in LPS-activated macrophages; format: cell-based, murine; settings: RAW 264.7 macrophages pretreated with creosol 30 minutes, then LPS 1 μg/ml 24 hours; FIG. 1A
Experimental: RAW 264.7 cells were seeded in 24-well plates at a density of 5×10^5 cells/ml, and then incubated with or without LPS (1 μg/ml) in the absence or presence of tested samples for 24 hours. The effects of creosol on NO production were measured indirectly by the analysis of nitrite levels, using the Griess reaction. The effects of creosol on the expression of inflammatory mediators were analyzed. In the present invention, RAW 264.7 macrophages (5×10^5/ml) were pretreated with creosol for 30 minutes, followed by stimulation with LPS (1 μg/ml) for 24 hours. NO concentration in culture medium was assayed by the Griess reaction.

[8] = test system: IL-6 expression in RAW 264.7 macrophages; test: IL-6 ELISA in LPS-activated macrophages; format: cell-based, murine; settings: RAW 264.7 macrophages pretreated with creosol 30 minutes, then LPS 1 μg/ml 24 hours; FIG. 1B
Experimental: as §1

[9] = test system: IL-1β precursor expression in J774A.1 cells; test: IL-1β precursor expression, Western blot in LPS-activated macrophages; format: cell-based, mouse; settings: J774A.1 cells incubated with creosol 30 minutes, then LPS 6 hours; FIG. 2E
Experimental: as §2, §3

## COc1cc(C)ccc1O [creosol, 2-methoxy-4-methylphenol]
[1]
  TNF-α expression: not able to inhibit TNF-α expression
[2]
  NLRP3 expression: inhibited NLRP3 expression slightly
[3]; J774A.1 cells incubated with creosol 30 minutes before LPS-priming, washed out, then ATP 30 minutes, FIG. 2C
  IL-1β secretion: inhibited IL-1β secretion in a dose-dependent fashion
[3]; LPS-primed J774A.1 cells incubated with creosol 30 minutes, then ATP 5 mM 30 minutes, FIG. 2A
  IL-1β secretion: inhibited IL-1β secretion slightly
[4]; J774A.1 cells incubated with creosol 30 minutes before LPS-priming, washed out, FIG. 2D
  caspase-1 activation: inhibited by creosol in a dose-dependent fashion
[4]; LPS-primed J774A.1 cells incubated with creosol 30 minutes, FIG. 2B
  caspase-1 activation: inhibited caspase-1 activation slightly
[5]
  prevention of cell death of neurons: able to prevent the cell death
[6]
  prevention of ovariectomy-induced bone loss: able to prevent ovariectomy-induced bone loss
[7]
  expression of NO: inhibited in creosol-pretreated cells in a dose-dependent manner
[8]
  IL-6 expression: able to inhibit IL-6 expression in a dose-dependent manner
[9]
  IL-1β precursor expression: significantly inhibited the IL-1[…] precursor expression
